Experimental findings from patent publication US20230233569A1 (Revolution Medicines, Inc., priority 2020, published 2023) are described below.

The subject of assay [1] is P70S6K (Thr389) phosphorylation (mTORC1) in MDA-MB-468 cells. The assay is described as follows: Cell based AlphaLISA assay, mTOR kinase cellular assay: inhibition of p-P70S6K (T389) in MDA-MB-468 cells. As to conditions: Homo sapiens, read-out: pIC50 for Inhibition of mTORC1 and mTORC2 Substarte Phosphorylation p-P70S6K-(T389) (converted). The essentials:
(§1)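 MDA-MB-468 cells treated with compound at 0.017-1,000 nM for two to four hours at 37° C, then lysed. Phospho-AKT1/2/3 S473, 4EBP1 T37/46 and P70S6K T389 quantified by AlphaLISA SureFire Ultra in duplicate; IC50 from normalized regression with control-based normalization.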

Assay [2] relates to 4EBP1 (Thr37/46) phosphorylation (mTORC1) in MDA-MB-468 cells. The assay is described as follows: Cell based AlphaLISA assay, mTOR kinase cellular assay: inhibition of p-4E-BP1 (T37/46) in MDA-MB-468 cells. The note with it: Homo sapiens, read-out: pIC50 for Inhibition of mTORC1 and mTORC2 Substarte Phosphorylation p-4E-BP1-(T37/46) (converted). In short, it runs like this: as §1
A general note: Alpha assays give light when donor and acceptor beads are brought close together.

The subject of assay [3] is AKT1/2/3 (Ser473) phosphorylation (mTORC2) in MDA-MB-468 cells. The assay is described as follows: Cell based AlphaLISA assay, mTOR kinase cellular assay: inhibition of p-Akt (S473) in MDA-MB-468 cells. As to conditions: Homo sapiens, read-out: pIC50 for Inhibition of mTORC1 and mTORC2 Substarte Phosphorylation p-AKT1/2/3-(S473) (converted). In short, it runs like this:
as §1

On to `CO[C@H]1C[C@@H]2CC[C@@H](C)[C@@](O)(O2)C(=O)C(=O)N2CCCC[C@H]2C(=O)O[C@H]([C@H](C)C[C@@H]2CC[C@@H](OC(=O)N3CCc4nc(N5CCN(c6ncc(C(=O)NCCOCCOCCOCCOCCC(=O)N7CCc8cc(Cn9nc(-c%10cnc%11[nH]ccc%11c%10)c%10c(N)ncnc%109)ccc8C7)cn6)CC5)ncc4C3)[C@H](OC)C2)CC(=O)[C@H](C)/C=C(\C)[C@@H](O)[C@@H](OC)C(=O)[C@H](C)C[C@H](C)/C=C/C=C/C=C/1C` [Example 36], for which the IC50 in assay [1] was ≤ 1 nM; in assay [2], ≤ 3.16 nM; in assay [3], > 1000 nM.

As to `CO[C@H]1C[C@@H]2CC[C@@H](C)[C@@](O)(O2)C(=O)C(=O)N2CCCC[C@H]2C(=O)O[C@H]([C@H](C)C[C@@H]2CC[C@@H](OC(=O)NCCOCCC(=O)NCc3cnc(N4CCN(C(=O)CCOCCN5CCN(c6ncc(C(=O)N7CCc8cc(Cn9nc(-c%10ccc%11oc(N)nc%11c%10)c%10c(N)ncnc%109)ccc8C7)cn6)CC5)CC4)nc3)[C@H](OC)C2)C[C@@H](O)[C@H](C)/C=C(\C)[C@@H](O)[C@@H](OC)C(=O)[C@H](C)C[C@H](C)/C=C/C=C/C=C/1C` [Example 69], the IC50 in assay [1] is ≤ 1 nM; in assay [2] it was ≤ 3.16 nM; in assay [3] it was 3.16 to 31.6 nM.

Regarding `CO[C@H]1C[C@@H]2CC[C@@H](C)[C@@](O)(O2)C(=O)C(=O)N2CCCC[C@H]2C(=O)O[C@H]([C@H](C)C[C@@H]2CC[C@@H](OC(=O)N3CCN(c4ncc(C(=O)NCCOCCOCCOCCOCCOCCC(=O)N5CCc6cc(Cn7nc(-c8cnc9[nH]ccc9c8)c8c(N)ncnc87)ccc6C5)cn4)CC3)[C@H](OC)C2)CC(=O)[C@H](C)/C=C(\C)[C@@H](O)[C@@H](OC)C(=O)[C@H](C)C[C@H](C)/C=C/C=C/C=C/1C` [Example 37], the values for the IC50 in assay [1], in assay [2] and in assay [3] were ≤ 1 nM, ≤ 3.16 nM and > 1000 nM, respectively.

On to `CO[C@H]1C[C@@H]2CC[C@@H](C)[C@@](O)(O2)C(=O)C(=O)N2CCCC[C@H]2C(=O)O[C@H]([C@H](C)C[C@@H]2CC[C@@H](OC(=O)NCCOCCOCCOCCOCCOCCOCCOCCOCCC(=O)N3CCc4cc(Cn5nc(-c6ccc7oc(N)nc7c6)c6c(N)ncnc65)ccc4C3)[C@H](OC)C2)CC(=O)[C@H](C)/C=C(\C)[C@@H](O)[C@@H](OC)C(=O)[C@H](C)C[C@H](C)/C=C/C=C/C=C/1C` [Example 2], for which the IC50 in assay [1] was ≤ 1 nM; in assay [2], ≤ 3.16 nM; in assay [3] it was 3.16 to 31.6 nM.

On to `CO[C@H]1C[C@@H]2CC[C@@H](C)[C@@](O)(O2)C(=O)C(=O)N2CCCC[C@H]2C(=O)O[C@H]([C@H](C)C[C@@H]2CC[C@@H](OC(=O)NCc3cnc(N4CCN(C(=O)CCOCCN5CCN(c6ncc(C(=O)NCCOCCC(=O)N7CCc8cc(Cn9nc(-c%10ccc%11oc(N)nc%11c%10)c%10c(N)ncnc%109)ccc8C7)cn6)CC5)CC4)nc3)[C@H](OC)C2)CC(=O)[C@H](C)/C=C(\C)[C@@H](O)[C@@H](OC)C(=O)[C@H](C)C[C@H](C)/C=C/C=C/C=C/1C` [Example 64], for which the results for the IC50 in assay [1], in assay [2] and in assay [3] were ≤ 1 nM, ≤ 3.16 nM and 3.16 to 31.6 nM, respectively.

Take `CO[C@H]1C[C@@H]2CC[C@@H](C)[C@@](O)(O2)C(=O)C(=O)N2CCCC[C@H]2C(=O)O[C@H]([C@H](C)C[C@@H]2CC[C@@H](OC(=O)NCCOCCOCCOCCOCCC(=O)NCc3cnc(N4CCN(c5ncc(C(=O)N6CCc7cc(Cn8nc(-c9ccc%10oc(N)nc%10c9)c9c(N)ncnc98)ccc7C6)cn5)CC4)nc3)[C@H](OC)C2)C[C@@H](O)[C@H](C)/C=C(\C)[C@@H](O)[C@@H](OC)C(=O)[C@H](C)C[C@H](C)/C=C/C=C/C=C/1C` [Example 49]: the values for the IC50 in assay [1], in assay [2] and in assay [3] were ≤ 1 nM, ≤ 3.16 nM and 3.16 to 31.6 nM, respectively.
